Data reported in US20240360109A1 (SHANGHAI HANSOH BIOMEDICAL CO., LTD., priority 2021, published 2024).

Columns and labels:
[1] = target: T1, human GLP-1 receptor (Homo sapiens, UniProt P43220); assay: Stimulation of human GLP1 receptor stable transgenic cell line CHO-K1/GLP-1R/CRE-luc to produce cAMP (HTRF); type: cell-based; conditions: cAMP production, CHO-K1/GLP-1R/CRE-luc cells, 30 minutes incubation, 0.5 mM IBMX
T1 construct: expressed in transfected cells
Excerpt: I. Determination of the Ability of the Compound of the Present Invention to Stimulate Human GLP1 Receptor Stable Transgenic Cell Lines to Produce cAMP
The purpose of this test example is to determine the ability of the compound to activate the human GLP-1 receptor on the cell surface. The EC50 that stimulates […] after agonism characterizes the compound's ability to activate the human GLP-1 receptor.
The frozen human GLP1 receptor stable transgenic cell line CHO-K1/GLP-1R/CRE-luc was taken from the liquid nitrogen tank, quickly thawed in a 37° C. water bath, resuspended with DMEM/F12 medium, centrifuged, and washed once. The cells were resuspended with the experimental buffer, namely DMEM/F12 medium containing 0.1% casein, and the experimental buffer was used to adjust the cell density. The cells were spread on spread on a 384-well plate at a density of 2500 cells/5 μL/well, and then to each well was added 2.5 μL of buffer-prepared IBMX working solution with a final concentration of IBMX of 0.5 mM, and 2.5 μL of the compound sample with gradient dilution (starting at 1000 nM, 3-fold dilution, 11 concentrations). The plate was centrifuged at 1000 rpm for 1 minute, shaken for 30 seconds to mix well, and incubated at room temperature for 30 minutes. Detection was performed using the Cisbio cAMP—Gs Dynamic kit. cAMP-d2 and Anti-cAMP-Eu^3+-Cryptate were diluted 20-fold with cAMP Lysis & Detection Buffer, respectively, and mixed well. To each well was added 5 μL diluted cAMP-d2 solution, and then added 5 μL diluted Anti-cAMP-Eu3^+-Cryptate solution. The plate was shaken for 30 seconds, and incubated at room temperature for 1 hour in the dark. The signal reading of HTRF was performed using the Biotek Synergy H1 microplate reader with an excitation wavelength of 320 nm and emission wavelengths of 620 nm and 665 nm.
The signal ratio (665 nm/620 nm*10,000) was calculated, and the signal ratio and sample concentration were nonlinearly fitted using a four-parameter equation in GraphPad Prism 6 to obtain the EC50 value.

[2] = Pharmacokinetic assay of SD rats; type: in vivo; conditions: Sprague-Dawley, rat, po; male SD rats, plasma, dose 50 mg/kg (b1219 prints 5 mg/kg)
Experimental: SD rats were used as test animals. The pharmacokinetic behavior of the following example compounds was studied in the plasma of rats administered orally at a dose of 50 mg/kg.
Vehicle formula: 0.5% CMC-Na (1% Tween 80);
Three SD rats per group, male. […]
Before and after administration, 0.2 mL of blood was collected from the jugular vein at 0, 0.25, 0.5, 1, 2, 4, 6, 8 and 24 hours, placed in EDTA-K2 tubes, centrifuged at 6000 rpm at 4° C. for 6 min to separate the plasma. The plasma samples were stored at −80° C. The […] was fed 4 hours after the administration.
• 1) 160 μL of acetonitrile was added to 40 μL of the plasma sample for precipitation, and then the mixture was centrifuged at 3500×g for 5-20 min. • 2) After the above process, 100 μL of the supernatant was taken to analyze the concentration of the test compound by LC/MS/MS.
• Liquid chromatography condition: Shimadzu LC-20AD pump Mass spectrometry condition: AB Sciex API 4000 mass spectrometer Chromatographic column: phenomenex Gemiu 5 μm C18 50×4.6 mm • Mobile phase: Eluent A was 0.1% formic acid in water, and Eluent B was methanol • Flow rate: 1.0 mL/min • Elution time: 0-4.0 minutes, the eluent is as follows:
The main pharmacokinetic parameters were calculated using WinNonlin 8.2.

[3] = test system: GLP-1R humanized C57BL/6 mice fed with high-fat diet; assay: Long-term administration: body weight and ingestion of GLP-1R humanized mice fed with high-fat diet; type: in vivo; conditions: HFD mice; for Weight (g)-D0 Mean: Day 0 (day of first administration, baseline), 10 mg/kg oral once a day; for Eeight (g)-D10 Mean / Weight (g)-D10 Mean: Day 10, 10 mg/kg oral once a day; for Body weight change(%)-D10 Mean: Day 10 versus Day 0, 10 mg/kg oral once a day
Excerpt: The purpose of this test is to evaluate the effects of long-term administration of the compound on the body weight and ingestion of GLP-1R humanized C57BL/6 mice fed with high-fat diet.
C57BL/6_hGLP-1R, male, 5-8 weeks; 60% high-fat diet (HFD); Ultra-clean workbench; Electronic balance.
3.1 On the day of feeding with high-fat diet, C57BL/6 mice were randomly divided into two groups according to their weight. The first group was Blank, with 7 mice fed with normal control diet, while the remaining animals were in the modeling group, fed with high-fat diet, and continued until the end of the experiment.
3.2 At the 8th week of HFD feeding, the modeling group animals were randomly divided with 7 animals per group according to their weight. The first group was the Vehicle group (Vehicle: 0.5% CMC Na+1% Tween 80), which was given vehicle; The remaining group was the administration group; Administration regimen: Oral administration of the corresponding compound, administration cycle was 14 days, once a day for 14 days, with an administration dose of 10 mg/kg and an administration volume of 10 mL/kg. The Blank group continued to be fed with normal diet without any administration operation.
3.3 The day of administration was defined as Day 0.
3.4 During each administration, animals were weighed and data was recorded. Oral administration is performed according to body weight, with an administration volume of 10 mL/kg.
3.5 Starting from Day 0 of the experiment, the food intake of each group of mice was measured once every three days. Specifically, the feed was changed after each weighing and administration, and the added and remaining amounts were recorded.
3.6 On the end day of Day 14, all mice were euthanized sequentially according to grouping order, and the livers were dissected and weighed.
The weight and weight change rate of mice after administration were summarize and statistically analyzed. Weight change rate calculation: (BWt−BW0)/BW0×100%. BWt represents the weight of the mice on Day t of the experiment, and BW0 represents the weight of the mice on Day 0 of the experiment.
Calculation of food intake: (added amount (g)−remaining amount (g))/number of animals per cage, cumulative food intake is the sum of daily food intake of each animal during the administration period.
Experimental data were analyzed using GraphPad Prism software. The t-test method was used for comparison between the two groups. The one-way ANOVA method was used for comparisons between three or more groups.

[4] = test system: GLP-1R humanized C57BL/6 mice; assay: Intraperitoneal glucose tolerance (ipGTT) after single administration in GLP-1R humanized mice; type: in vivo; conditions: single administration 0.3 mg/kg, glucose 2 g/kg intraperitoneal 1 hour after administration, AUC 0-120 min, versus model control group
Excerpt: To evaluate the effect of single administration of the compound of the present invention on blood glucose changes in the intraperitoneal glucose tolerance (ipGTT) experiment in GLP-1R humanized C57BL/6 mice.
C57BL/6_hGLP-1R, male, 5-8 weeks; Ultra-clean workbench; Electronic balance; Vitality type blood glucose meter; Glucose.
3.1 On the day before the experiment, the animals were randomly divided according to their weight, with 5 animals per group. All animals were deprived of food overnight and fasted for more than 16 hours from the time of administration.
3.2 0.2 g/mL glucose solution was prepared with pure water and filtered by 0.22 µm filter membrane for use.
3.3 On the testing day, the blood glucose value of each animal was measured successively by tail clipping method before administration, which was recorded as Baseline value;
Blood glucose test method: the mouse was placed in the immobilizer, the tail tip was disinfected with an alcohol cotton ball, then a little tail tip was cut off with scissors, the first drop of blood was discarded, and the second drop of blood was dropped onto the prepared blood glucose test strip to detect the blood glucose value;
3.4 The animals were administered according to animal weight, and the administration time was record for each animal. After 1 hour of administration, the blood glucose value of each animal was measured sequentially, and recorded as the 0 minute blood glucose value;
3.5 Subsequently, according to the weight of the day, the aminals were immediately injected with pure water or glucose solution into the abdominal cavity, with a volume of 10 mL/kg and a glucose dose of 2 g/kg;
3.6 The blood glucose values of each mouse were measured, and the time and data were recorded after 15, 30, 60, 90, and 120 minutes of pure water or glucose solution injection;
The blood glucose (BG)-time curve was drawn, and the area under the blood glucose-time curve was calculated. The calculation formula is as follows: […]
Note: BG0, BG15, BG30, BG60, BG90, and BG120 represent blood glucose values before glucose administration (0 min) and 15, 30, 60, 90, and 120 min after glucose administration, respectively.
The blood glucose decline rate of AUC at each time point was calculated according to the average blood glucose value and AUC of blood glucose at each time point.

[5] = early clinical practice; cited from earlier work

T1 sequence (P43220 24-463): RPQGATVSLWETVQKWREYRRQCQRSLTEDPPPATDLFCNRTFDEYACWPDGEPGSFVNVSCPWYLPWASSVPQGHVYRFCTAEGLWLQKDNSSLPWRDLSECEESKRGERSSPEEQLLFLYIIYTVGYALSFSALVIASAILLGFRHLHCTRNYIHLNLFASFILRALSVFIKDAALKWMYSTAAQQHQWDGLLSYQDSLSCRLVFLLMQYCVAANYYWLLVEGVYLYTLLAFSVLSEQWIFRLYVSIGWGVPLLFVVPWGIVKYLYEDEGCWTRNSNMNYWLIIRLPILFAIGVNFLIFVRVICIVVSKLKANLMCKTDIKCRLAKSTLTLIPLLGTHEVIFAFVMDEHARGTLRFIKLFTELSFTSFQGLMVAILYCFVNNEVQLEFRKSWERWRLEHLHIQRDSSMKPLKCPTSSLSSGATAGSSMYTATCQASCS

EC50 [1] | AUC(0-inf) [2] | AUC(0-t) [2] | Cmax [2] | Tmax [2] | half-life [2] | SMILES | Weight (g)-D0 Mean ([3]; the 4th table) | Eeight (g)-D10 Mean ([3]; the 4th table) | Body weight change(%)-D10 Mean ([3]; the 4th table) | Blood glucose decline rate of AUC % [4] | Weight (g)-D0 Mean ([3]; the 3rd table) | Weight (g)-D10 Mean ([3]; the 3rd table) | Body weight change(%)-D10 Mean ([3]; the 3rd table) | hypoglycemic and weight reducing effects [5]
0.03 nM | 19100 ng·h/mL | 19100 ng·h/mL | 6400 ng/mL | 2 h | 3.8 h | O=C(O)c1ccc2nc(CN3CCC(c4cccc5c4O[C@@H](c4ccc(Cl)cc4F)C=C5)CC3)n(C[C@@H]3CCO3)c2n1 [Example 48, 2-((4-((R)-2-(4-Chloro-2-fluorophenyl)-2H-chromen-8-yl)piperidin-1-yl)methyl)-3-(((S)-oxetan-2-yl)methyl)-3H-imidazolo[4,5-b]pyridine-5-carboxylic acid] | 28.23 g | 25.85 g | −8.44% | 62.89% |  |  |  | 
0.04 nM |  |  |  |  |  | [2H]C([2H])([2H])Oc1cc(Cl)ccc1[C@@]1([2H])C=C(F)c2cccc(C3CCN(Cc4nc5ccc(C(=O)O)nc5n4C[C@@H]4CCO4)CC3)c2O1 [Example 41, 2-((4-((R)-2-(4-Chloro-2-(methoxy-d3)phenyl)-4-fluoro-2H-chromen-8-yl-2-d)piperidin-1-yl)methyl)-3-(((S)-oxetan-2-yl)methyl)-3H-imidazolo[4,5-b]pyridine-5-carboxylic acid] |  |  |  | 53.09% | 28.54 g | 26.20 g | −8.19% | 
0.07 nM |  |  |  |  |  | [2H][C@]1(c2ccc(Cl)cc2F)C=Cc2cccc(C3CCN(Cc4nc5ccc(C(=O)O)nc5n4C[C@@H]4CCO4)CC3)c2O1 [Example 42, 2-((4-((R)-2-(4-Chloro-2-fluorophenyl)-2H-chromen-8-yl-2-d)piperidin-1-yl)methyl)-3-(((S)-oxetan-2-yl)methyl)-3H-imidazolo[4,5-b]pyridine-5-carboxylic acid] |  |  |  | 56.79% | 28.54 g | 26.04 g | −8.75% | 
0.05 nM |  |  |  |  |  | [2H]C([2H])([2H])Oc1cc(Cl)ccc1[C@@]1([2H])C=Cc2cccc(C3CCN(Cc4nc5ccc(C(=O)O)nc5n4C[C@@H]4CCO4)CC3)c2O1 [Example 43, 2-((4-((R)-2-(4-Chloro-2-(methoxy-d3)phenyl)-2H-chromen-8-yl-2-d)piperidin-1-yl)methyl)-3-(((S)-oxetan-2-yl)methyl)-3H-imidazolo[4,5-b]pyridine-5-carboxylic acid] | 28.37 g | 26.57 g | −6.37% | 46.57% |  |  |  | 
 |  |  |  |  |  | N#Cc1ccc(COc2cccc(C3CCN(Cc4nc5ccc(C(=O)O)cc5n4C[C@@H]4CCO4)CC3)n2)c(F)c1 [PF-06882961] |  |  |  |  |  |  |  | significant hypoglycemic and weight reducing effects
